US20230041743A1, “1,8-NAPHTHYRIDIN-2-ONE COMPOUNDS FOR THE TREATMENT OF AUTOIMMUNE DISEASE” (Hoffmann-La Roche Inc., priority 2019, published 2023)
pIC50: −log10 of the molar value.

How the values were obtained:
human TLR8 = target: T1, human TLR8 (Homo sapiens, UniProt Q9NR97); test: HEK293-Blue-hTLR-8 cells assay (SEAP reporter, R848 stimulation); format: cell-based; conditions: HEK293-Blue-hTLR8 cells, R848 ligand, 20 hrs incubation; read-out: HEK/hTLR8 IC50
T1 construct: host or cells: HEK293 (HEK-Blue hTLR8)
T1 sequence (Q9NR97 27-1041): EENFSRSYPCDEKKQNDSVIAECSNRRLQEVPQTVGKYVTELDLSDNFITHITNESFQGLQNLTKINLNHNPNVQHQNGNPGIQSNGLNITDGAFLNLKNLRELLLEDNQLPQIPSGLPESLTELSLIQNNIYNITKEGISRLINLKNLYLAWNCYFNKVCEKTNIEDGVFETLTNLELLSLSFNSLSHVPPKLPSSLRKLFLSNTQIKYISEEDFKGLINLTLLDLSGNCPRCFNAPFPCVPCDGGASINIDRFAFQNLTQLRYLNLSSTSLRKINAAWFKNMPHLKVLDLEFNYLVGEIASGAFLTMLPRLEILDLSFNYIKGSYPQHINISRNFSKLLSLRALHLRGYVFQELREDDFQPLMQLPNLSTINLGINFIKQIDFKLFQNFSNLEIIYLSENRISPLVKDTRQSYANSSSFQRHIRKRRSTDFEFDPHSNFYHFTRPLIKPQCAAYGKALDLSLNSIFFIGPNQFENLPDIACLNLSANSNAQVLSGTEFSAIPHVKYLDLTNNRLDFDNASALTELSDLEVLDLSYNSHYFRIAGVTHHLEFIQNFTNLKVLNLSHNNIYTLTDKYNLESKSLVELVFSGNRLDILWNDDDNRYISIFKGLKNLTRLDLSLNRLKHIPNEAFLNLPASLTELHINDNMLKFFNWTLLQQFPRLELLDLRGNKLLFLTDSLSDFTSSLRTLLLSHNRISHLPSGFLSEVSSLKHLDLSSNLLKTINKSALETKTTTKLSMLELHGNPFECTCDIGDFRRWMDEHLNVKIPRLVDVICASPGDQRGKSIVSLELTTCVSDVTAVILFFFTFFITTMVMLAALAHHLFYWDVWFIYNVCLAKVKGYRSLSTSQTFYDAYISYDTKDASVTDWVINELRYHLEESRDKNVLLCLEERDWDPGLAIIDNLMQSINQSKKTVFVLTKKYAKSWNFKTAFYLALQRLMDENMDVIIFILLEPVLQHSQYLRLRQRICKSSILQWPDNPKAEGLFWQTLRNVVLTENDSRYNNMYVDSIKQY
Description: HEK293-Blue-hTLR-8 Cells Assay:
A stable HEK293-Blue-hTLR-8 cell line was purchased from InvivoGen (Cat. #: hkb-htlr8, San Diego, Calif., USA). These cells were originally designed for studying the stimulation of human TLR8 by monitoring the activation of NF-κB. A SEAP (secreted embryonic alkaline phosphatase) reporter gene was placed under the control of the IFN-β minimal promoter fused to five NF-κB and AP-1-binding sites. The SEAP was induced by activating NF-κB and AP-1 via stimulating HEK-Blue hTLR8 cells with TLR8 ligands. Therefore the reporter expression was declined by TLR8 antagonist under the stimulation of a ligand, such as R848, for incubation of 20 hrs. The cell culture supernatant SEAP reporter activity was determined using QUANTI-Blue™ kit (Cat. #: rep-qb1, Invivogen, San Diego, Ca, USA) at a wavelength of 640 nm, a detection medium that turns purple or blue in the presence of alkaline phosphatase.
HEK293-Blue-hTLR8 cells were incubated at a density of 250,000-450,000 cells/mL in a volume of 170 μL in a 96-well plate in Dulbecco's Modified Eagle's medium (DMEM) containing 4.5 g/L glucose, 50 U/mL penicillin, […], […], 2 mM L-glutamine, 10% (v/v) heat-inactivated fetal bovine serum with addition of 20 μL test compound in a serial dilution in the presence of final DMSO at 1% and 10 μL of 60 uM R848 in above DMEM, perform incubation under 37° C. in a CO2 incubator for 20 hrs. Then 20 μL of the supernatant from each well was incubated with 180 μL Quanti-blue substrate solution at 37° C. for 2 hrs and the absorbance was read at 620-655 nm using a spectrophotometer. The signaling pathway that TLR8 activation leads to downstream NF-κB activation has been widely accepted, and therefore similar reporter assay was modified for evaluating TLR8 antagonist.

[1] = Human microsomal stability assay; format: in vitro ADME; conditions: human liver microsomes, 1 μM test compound, 0.5 mg/mL protein, 37° C.; low <7.0, medium 7.0-16.2, high 16.2-23.2
Description: Human Microsomal Stability Assay
Human liver microsomes (Cat. NO.: 452117, Corning, USA) were preincubated with test compound for 10 minutes at 37° C. in 100 mM potassium phosphate buffer, pH 7.4. The reactions were initiated by adding NADPH regenerating system. The final incubation mixtures contained 1 μM test compound, 0.5 mg/mL liver microsomal protein, 1 mM MgCl2, 1 mM NADP, 1 unit/mL isocitric dehydrogenase and 6 mM isocitric acid in 100 mM potassium phosphate buffer, pH 7.4. After incubation times of 0, 3, 6, 9, 15 and 30 minutes at 37° C., 300 μL of cold ACN (including internal standard) was added to 100 μL incubation mixture to terminate the reaction. Following precipitation and centrifugation, 100 uL supernatant will be taken out and added 300 uL water.
The amount of compound remaining in the samples was determined by LC-MS/MS. Controls of no NADPH regenerating system at zero and 30 minutes were also prepared and analyzed. The results were categorized as: low (<7.0 mL/min/kg), medium (7.0-16.2 mL/min/kg) and high (16.2-23.2 mL/min/kg).

Row | pIC50 (human TLR8) | CL (h) [1] [mL/min/kg] | Compound
1 | 8.89 | 7.9 | C[C@@H]1CN(c2cc(=O)n(C)c3ncccc23)C[C@@H]2c3ccc(N4CCN[C@@H](C)C4)cc3CN12 [Example 13, 4-[(4R,10bS)-4-methyl-8-[(3S)-3-methylpiperazin-1-yl]-3,4,6,10b-tetrahydro-1H-pyrazino[2,1-a]isoindol-2-yl]-1-methyl-1,8-naphthyridin-2-one]
2 | 8.85 | 6.2 | C[C@@H]1CN(c2cc(=O)n(C)c3ncccc23)C[C@@H]2c3ccc(C4CCNCC4)cc3CN12 [Example 24, 4-[(4R,10bS)-4-methyl-8-(4-piperidyl)-3,4,6,10b-tetrahydro-1H-pyrazino[2,1-a]isoindol-2-yl]-1-methyl-1,8-naphthyridin-2-one]
3 | 8.19 | 9.8 | C[C@@H]1CN(c2cc(=O)n(C)c3ncccc23)C[C@@H]2c3ccc(C4CCNC4)cc3CN12 (stereo partly drawn) [Example 26, 4-[(4R,10bS)-4-methyl-8-pyrrolidin-3-yl-3,4,6,10b-tetrahydro-1H-pyrazino[2,1-a]isoindol-2-yl]-1-methyl-1,8-naphthyridin-2-one]
4 | 7.58 | 6.4 | CCn1c(=O)cc(N2C[C@@H](C)N3Cc4cc(N5C[C@@H](N)[C@H](OC)C5)ccc4[C@H]3C2)c2cccnc21 [Example 29, 4-[(4R,10bS)-8-[(3R,4R)-3-amino-4-methoxy-pyrrolidin-1-yl]-4-methyl-3,4,6,10b-tetrahydro-1H-pyrazino[2,1-a]isoindol-2-yl]-1-ethyl-1,8-naphthyridin-2-one]
5 | 8.23 | 9.4 | C[C@@H]1CN(c2cc(=O)n(C)c3ncccc23)C[C@@H]2c3ccc(N4C[C@@H](N)[C@@H](F)C4)cc3CN12 [Example 7, 4-[(4R,10bS)-8-[(3R,4S)-3-amino-4-fluoro-pyrrolidin-1-yl]-4-methyl-3,4,6,10b-tetrahydro-1H-pyrazino[2,1-a]isoindol-2-yl]-1-methyl-1,8-naphthyridin-2-one]
6 | 8.60 | 6.2 | C[C@@H]1CN(c2cc(=O)n(C)c3ncccc23)C[C@@H]2c3ccc(N4CCC(C)(N)CC4)cc3CN12 [Example 18, 4-[(4R,10bS)-8-(4-amino-4-methyl-1-piperidyl)-4-methyl-3,4,6,10b-tetrahydro-1H-pyrazino[2,1-a]isoindol-2-yl]-1-methyl-1,8-naphthyridin-2-one]
7 | 9.10 | 6.2 | C[C@@H]1CN(c2cc(=O)n(C)c3ncccc23)C[C@@H]2c3ccc(N4CCNCC4)cc3CN12 [Example 12, 4-[(4R,10bS)-4-methyl-8-piperazin-1-yl-3,4,6,10b-tetrahydro-1H-pyrazino[2,1-a]isoindol-2-yl]-1-methyl-1,8-naphthyridin-2-one]
8 | 8.77 | 9.5 | C[C@@H]1CN(c2cc(=O)n(C)c3ncccc23)C[C@@H]2c3ccc(N4CC5(CN(C)C5)C4)cc3CN12 [Example 2, 4-[(4R,10bS)-4-methyl-8-(6-methyl-2,6-diazaspiro[3.3]heptan-2-yl)-3,4,6,10b-tetrahydro-1H-pyrazino[2,1-a]isoindol-2-yl]-1-methyl-1,8-naphthyridin-2-one]
9 | 8.59 | 6.2 | C[C@@H]1CN(c2cc(=O)n(C)c3ncccc23)C[C@@H]2c3ccc(C4CCCNC4)cc3CN12 (stereo partly drawn) [Example 25, 4-[(4R,10bS)-4-methyl-8-(3-piperidyl)-3,4,6,10b-tetrahydro-1H-pyrazino[2,1-a]isoindol-2-yl]-1-methyl-1,8-naphthyridin-2-one]
10 | 9.00 | 6.2 | C[C@@H]1CN(c2cc(=O)n(C)c3ncccc23)C[C@@H]2c3ccc(OCCN(C)C)cc3CN12 [Example 23, 4-[(4R,10bS)-8-[2-(dimethylamino)ethoxy]-4-methyl-3,4,6,10b-tetrahydro-1H-pyrazino[2,1-a]isoindol-2-yl]-1-methyl-1,8-naphthyridin-2-one]
11 | 8.14 | 8.0 | C[C@@H]1CN(c2cc(=O)n(C)c3ncccc23)C[C@@H]2c3ccc(N4CCC[C@](C)(N)C4)cc3CN12 [Example 15, 4-[(4R,10bS)-8-[(3S)-3-amino-3-methyl-1-piperidyl]-4-methyl-3,4,6,10b-tetrahydro-1H-pyrazino[2,1-a]isoindol-2-yl]-1-methyl-1,8-naphthyridin-2-one]
12 | 7.62 | 6.9 | C[C@@H]1CN(c2cc(=O)n(C)c3ncccc23)C[C@@H]2c3ccc(N4CCOC5(CNC5)C4)cc3CN12 [Example 11, 4-[(4R,10bS)-4-methyl-8-(5-oxa-2,8-diazaspiro[3.5]nonan-8-yl)-3,4,6,10b-tetrahydro-1H-pyrazino[2,1-a]isoindol-2-yl]-1-methyl-1,8-naphthyridin-2-one]
13 | 8.41 | 8.5 | C[C@@H]1CN(c2cc(=O)n(C)c3ncccc23)C[C@@H]2c3ccc(N4CCC[C@@H](N)C4)cc3CN12 [Example 16, 4-[(4R,10bS)-8-[(3R)-3-amino-1-piperidyl]-4-methyl-3,4,6,10b-tetrahydro-1H-pyrazino[2,1-a]isoindol-2-yl]-1-methyl-1,8-naphthyridin-2-one]
14 | 8.35 | 6.2 | C[C@@H]1CN(c2cc(=O)n(C)c3ncccc23)C[C@@H]2c3ccc(N4C[C@H]5C[C@@H]4CN5)cc3CN12 [Example 20, 4-[(4R,10bS)-8-[(1R,4R)-2,5-diazabicyclo[2.2.1]heptan-2-yl]-4-methyl-3,4,6,10b-tetrahydro-1H-pyrazino[2,1-a]isoindol-2-yl]-1-methyl-1,8-naphthyridin-2-one]
15 | 7.94 | 7.8 | CO[C@@H]1CN(c2ccc3c(c2)CN2[C@H](C)CN(c4cc(=O)n(C)c5ncccc45)C[C@H]32)C[C@H]1N [Example 5, 4-[(4R,10bS)-8-[(3R,4R)-3-amino-4-methoxy-pyrrolidin-1-yl]-4-methyl-3,4,6,10b-tetrahydro-1H-pyrazino[2,1-a]isoindol-2-yl]-1-methyl-1,8-naphthyridin-2-one]
